SMILES strings stand for the structures. ≈ marks a conversion by molar mass, not a printed value.

One data set relates to aerobic bacteria. In words: Killing effect. In kind it is cell-based. As to conditions: aqueous solutions of tinidazole; test not described. The protocol: The composition was prepared as in Example 4. […] In particular, the product is usable for disease states such as acne and seborrhoea.
The test system of a further data set is Gram positive bacteria. As to conditions: effects demonstrated only on Gram positive bacteria; cited from earlier work.
The conditions of data set [1]: generally accepted; cited from earlier work.
The test system of a further data set is S. aureus. Description: MIC (minimum inhibitory concentration) determination. Type of data set: cell-based.
The test system of another data set is S. epidermis. Described as above. Type of data set: cell-based.
For another data set, the system named is C. albicans. The description is as above. In kind it is cell-based.
A further data set has as its system T. rubrum. The data set is described as above. In kind it is cell-based.
The subject of a further data set is P. ovale. Described as above. Type of data set: cell-based.

As to `CCS(=O)(=O)CCn1c([N+](=O)[O-])cnc1C` [tinidazole], the “effectiveness of aqueous solutions against aerobic bacteria” value in the data set on aerobic bacteria is given as “not effective”.
Regarding `CCCCCCCCCCCC(=O)OCC(O)CO` (stereo not shown) [monolaurin, monoglyceride of lauric acid], the “antimicrobial properties per se” value in the data set on Gram positive bacteria is given as “exhibit certain antimicrobial properties”. The toxicity entry in data set [1] is “completely non-toxic”.
In the case of `CCCCCCCCCCCCCC(=O)OCC(O)CO` (stereo not shown) [monomyristin, monoglyceride of myristic acid], in the data set with Gram positive bacteria, the “antimicrobial properties per se” value is on record as “exhibit certain antimicrobial properties”. In data set [1], the toxicity entry was “completely non-toxic”.
In the case of `OCCCCCO` [1,5-pentanediol solution, 1,5-pentanediol], the MIC value is 50 mg/mL (≈ 480 mM) against S. aureus; 50 mg/mL (≈ 480 mM) in the data set with S. epidermis; 40 mg/mL (≈ 384 mM) against C. albicans; 10 mg/mL (≈ 96 mM) in the data set with T. rubrum; 20 mg/mL (≈ 192 mM) in the data set with P. ovale.

Values taken from patent US5550145A, “Potentiation of antimicrobial effects” (Bioglan AB, priority 1992, dated 1996).
